# Measurements published in patent publication US8685999B2, “Beta carboline sulphonylurea derivatives as EP4 receptor antagonists” (Merck Sharp & Dohme Corp., priority 2008, dated 2014).
# Read-outs that look alike come from different tables or passages of the source.
# Target: T1, EP4 (Homo sapiens, UniProt P35408)
# T1 construct: expressed in transfected cells; membranes prepared by differential centrifugation
# Experiment: Prostanoid receptor binding assay (radioligand displacement binding assay)
# Description: Prostanoid receptor cDNAs corresponding to full length coding sequences are subcloned into the appropriate sites of mammalian expression vectors and transfected into HEK 293(ebna) cells. HEK 293(ebna) cells expressing the individual cDNAs are grown under selection and individual colonies are isolated after 2-3 weeks of growth using the cloning ring method and subsequently expanded into clonal cell lines.
# Transfected HEK 293(ebna) cells are maintained in culture, harvested and membranes are prepared by differential centrifugation, following lysis of the cells in the presence of protease inhibitors, for use in receptor binding assays. Prostanoid receptor binding assays (for DP1, DP2 (CRTH2), EP1, EP2, EP3-III, EP4, FP, IP, and TP) are performed in 10 mM MES/KOH (pH 6.0) (EPs, FP and TP) or 10 mM HEPES/KOH (pH 7.4) (DPs and IP), containing 1 mM EDTA, 2.5-30 mM divalent cation and the appropriate radio-ligand. Synthetic compounds are added in DMSO which is kept constant at 1% (v/v) in all incubations. The reaction is initiated by addition of membrane protein. Non-specific binding is determined in the presence of 10 μM of the corresponding non-radioactive prostanoid. Incubations are conducted for 60-120 min at room temperature or 30° C. and terminated by rapid filtration. Specific binding is calculated by subtracting non specific binding from total binding. The residual specific binding at each ligand concentration is calculated and expressed as a function of ligand concentration in order to construct sigmoidal concentration-response curves. The binding affinity of the compounds is determined by calculating the equilibrium inhibition constant (Ki) from the equation Ki=InPt/1+[radio-ligand]/Kd where Kd is the equilibrium dissociation constant for the radio-ligand:receptor interaction and InPt is the inflection point of the dose-response curves.
# Abramovitz, M. et al., Biochem, Biophys. Acta, 2000, 1483, pp. 285.
# [1] = column marked X when IC50 between 1 and 5, read-out: IC50 (nm) 1 < X < 5
# [2] = radioligand displacement binding assay, read-out: IC50
# [3] = column marked X when IC50 < 1, read-out: IC50 (nm) X < 1
# [4] = column marked X when IC50 > 5, read-out: IC50 (nm) X > 5
# T1 sequence (P35408 whole entry): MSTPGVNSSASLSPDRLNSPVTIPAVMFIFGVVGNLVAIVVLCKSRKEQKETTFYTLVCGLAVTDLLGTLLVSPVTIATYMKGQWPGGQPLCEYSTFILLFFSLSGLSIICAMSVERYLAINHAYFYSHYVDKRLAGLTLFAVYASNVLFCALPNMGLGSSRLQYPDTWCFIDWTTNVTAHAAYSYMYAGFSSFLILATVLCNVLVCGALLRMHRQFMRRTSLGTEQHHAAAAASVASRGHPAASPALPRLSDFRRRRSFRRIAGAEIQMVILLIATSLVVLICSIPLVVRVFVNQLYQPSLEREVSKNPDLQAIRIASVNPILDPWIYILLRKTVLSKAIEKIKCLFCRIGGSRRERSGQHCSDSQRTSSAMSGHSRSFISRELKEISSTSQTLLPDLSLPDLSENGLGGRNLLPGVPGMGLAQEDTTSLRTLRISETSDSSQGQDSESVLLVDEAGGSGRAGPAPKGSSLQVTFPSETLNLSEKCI
SMILES,IC50 [3],other results
"CN1CCc2c(n(-c3ccc(CC4(NC(=O)NS(=O)(=O)c5ccc(Cl)cc5)CC4)cc3)c3ccc(-c4ccccc4)cc23)C1=O [Example 1-1, 4-chloro-N-[({1-[4-(2-methyl-1-oxo-6-phenyl-1,2,3,4-tetrahydro-9H-beta-carbolin-9-yl)benzyl]cyclopropyl}amino)carbonyl]benzenesulfonamide]",–,IC50 [1]: 1 to 5 nM; IC50 [2]: 1 to 5 nM
"O=C(NCCc1ccc(-n2c3c(c4c(Cl)cc(Cl)cc42)CCN(CC2CC2)C3=O)cc1)NS(=O)(=O)c1ccc(Cl)cc1 [Example 1-7, 4-chloro-N-{[(2-{4-[5,7-dichloro-2-(cyclopropylmethyl)-1-oxo-1,2,3,4-tetrahydro-9H-beta-carbolin-9-yl]phenyl}ethyl)amino]carbonyl}benzenesulfonamide]",–,IC50 [1]: 1 to 5 nM; IC50 [2]: 1 to 5 nM
"O=C(NCCc1ccc(-n2c3c(c4c(Cl)cc(Cl)cc42)CCN(c2ccccc2)C3=O)cc1)NS(=O)(=O)c1ccc(Cl)cc1 [Example 1-9, 4-chloro-N-[({2-[4-(5,7-dichloro-1-oxo-2-phenyl-1,2,3,4-tetrahydro-9H-beta-carbolin-9-yl)phenyl]ethyl}amino)carbonyl]benzenesulfonamide]",–,IC50 [4]: > 5 nM; IC50 [2]: > 5 nM
"CN1CCc2c(n(-c3ccc(CCNC(=O)NS(=O)(=O)c4ccc(Cl)cc4)cc3)c3cccc(Br)c23)C1=O [Example 1-14, N-[({2-[4-(5-bromo-2-methyl-1-oxo-1,2,3,4-tetrahydro-9H-beta-carbolin-9-yl)phenyl]ethyl}amino)carbonyl]-4-chlorobenzenesulfonamide]",< 1 nM,–
"CN1CCc2c(n(-c3ccc(CCNC(=O)NS(=O)(=O)c4ccc(Cl)cc4)cc3)c3cc(Br)ccc23)C1=O [Example 1-15, N-[({2-[4-(7-bromo-2-methyl-1-oxo-1,2,3,4-tetrahydro-9H-beta-carbolin-9-yl)phenyl]ethyl}amino)carbonyl]-4-chlorobenzenesulfonamide]",< 1 nM,–
"CN1CCc2c(n(-c3ccc(CC4(NC(=O)NS(=O)(=O)c5ccc(Cl)cc5)CC4)cc3)c3ccc(Br)cc23)C1=O [Example 1-16, N-[({1-[4-(6-bromo-2-methyl-1-oxo-1,2,3,4-tetrahydro-9H-beta-carbolin-9-yl)benzyl]cyclopropyl}amino)carbonyl]-4-chlorobenzenesulfonamide]",< 1 nM,–
"CN1CCc2c(n(-c3ccc(CCNC(=O)NS(=O)(=O)c4ccc(Cl)cc4)cc3)c3cccc(-c4ccccc4)c23)C1=O [Example 1-17, 4-chloro-N-[({2-[4-(2-methyl-1-oxo-5-phenyl-1,2,3,4-tetrahydro-9H-beta-carbolin-9-yl)phenyl]ethyl}amino)carbonyl]benzenesulfonamide]",< 1 nM,–
"CN1CCc2c(n(-c3ccc(CCNC(=O)NS(=O)(=O)c4ccc(Cl)cc4)cc3)c3cc(-c4ccccc4)ccc23)C1=O [Example 1-18, 4-chloro-N-[({2-[4-(2-methyl-1-oxo-7-phenyl-1,2,3,4-tetrahydro-9H-beta-carbolin-9-yl)phenyl]ethyl}amino)carbonyl]benzenesulfonamide]",–,IC50 [4]: > 5 nM; IC50 [2]: > 5 nM
"CN1CCc2c(n(-c3ccc(CCNC(=O)NS(=O)(=O)c4ccc(Cl)cc4)cc3)c3ccc(-c4ccc(F)cc4)cc23)C1=O [Example 1-19, 4-chloro-N-{[(2-{4-[6-(4-fluorophenyl)-2-methyl-1-oxo-1,2,3,4-tetrahydro-9H-beta-carbolin-9-yl]phenyl}ethyl)amino]carbonyl}benzenesulfonamide]",< 1 nM,–
"CN1CCc2c(n(-c3ccc(CCNC(=O)NS(=O)(=O)c4ccc(Cl)cc4)cc3)c3c(Cl)cccc23)C1=O [Example 1-20, 4-chloro-N-[({2-[4-(8-chloro-2-methyl-1-oxo-1,2,3,4-tetrahydro-9H-beta-carbolin-9-yl)phenyl]ethyl}amino)carbonyl]benzenesulfonamide]",–,IC50 [4]: > 5 nM; IC50 [2]: > 5 nM
"CN1CCc2c(n(-c3ccc(CCNC(=O)NS(=O)(=O)c4ccc(Cl)cc4)cc3)c3ccc(-c4cccnc4)cc23)C1=O [Example 1-21, 4-chloro-N-[({2-[4-(2-methyl-1-oxo-6-pyridin-3-yl-1,2,3,4-tetrahydro-9H-beta-carbolin-9-yl)phenyl]ethyl}amino)carbonyl]benzenesulfonamide]",< 1 nM,–
"CN1CCc2c(n(-c3ccc(CCNC(=O)NS(=O)(=O)c4ccc(Cl)cc4)cc3)c3ccc(-c4ccccn4)cc23)C1=O [Example 1-22, 4-chloro-N-[({2-[4-(2-methyl-1-oxo-6-pyridin-2-yl-1,2,3,4-tetrahydro-9H-beta-carbolin-9-yl)phenyl]ethyl}amino)carbonyl]benzenesulfonamide]",< 1 nM,–
"CN1CCc2c(n(-c3ccc(CC4(NC(=O)NS(=O)(=O)c5ccc(Cl)cc5)CC4)cc3)c3ccc(-c4ccccc4F)cc23)C1=O [Example 1-23, 4-chloro-N-{[(1-{4-[6-(2-fluorophenyl)-2-methyl-1-oxo-1,2,3,4-tetrahydro-9H-beta-carbolin-9-yl]benzyl}cyclopropyl)amino]carbonyl}benzenesulfonamide]",< 1 nM,–

# Further lines, with some results ahead:
IC50 [3],SMILES,other results
< 1 nM,"Cc1ccc(S(=O)(=O)NC(=O)NCCc2ccc(-n3c4c(c5c(C)cc(C)cc53)CCN(C)C4=O)cc2)cc1 [Example 1-2, 4-methyl-N-[({2-[4-(2,5,7-trimethyl-1-oxo-1,2,3,4-tetrahydro-9H-beta-carbolin-9-yl)phenyl]ethyl}amino)carbonyl]benzenesulfonamide]",–
< 1 nM,"CN1CCc2c(n(-c3ccc(CCNC(=O)NS(=O)(=O)c4ccc(Cl)cc4)cc3)c3cc(Cl)cc(Cl)c23)C1=O [Example 1-3, 4-chloro-N-[({2-[4-(5,7-dichloro-2-methyl-1-oxo-1,2,3,4-tetrahydro-9H-beta-carbolin-9-yl)phenyl]ethyl}amino)carbonyl]benzenesulfonamide]",–
< 1 nM,"CN1CCc2c(n(-c3ccc(CCNC(=O)NS(=O)(=O)c4ccc(Cl)cc4)cc3)c3ccc(Cl)cc23)C1=O [Example 1-4, 4-chloro-N-[({2-[4-(6-chloro-2-methyl-1-oxo-1,2,3,4-tetrahydro-9H-beta-carbolin-9-yl)phenyl]ethyl}amino)carbonyl]benzenesulfonamide]",–
< 1 nM,"CN1CCc2c(n(-c3ccc(CCNC(=O)NS(=O)(=O)c4ccc(Cl)cc4)cc3)c3ccc(Br)cc23)C1=O [Example 1-5, N-[({2-[4-(6-bromo-2-methyl-1-oxo-1,2,3,4-tetrahydro-9H-beta-carbolin-9-yl)phenyl]ethyl}amino)carbonyl]-4-chlorobenzenesulfonamide]",–
< 1 nM,"CCN1CCc2c(n(-c3ccc(CCNC(=O)NS(=O)(=O)c4ccc(Cl)cc4)cc3)c3cc(Cl)cc(Cl)c23)C1=O [Example 1-6, 4-chloro-N-[({2-[4-(5,7-dichloro-2-ethyl-1-oxo-1,2,3,4-tetrahydro-9H-beta-carbolin-9-yl)phenyl]ethyl}amino)carbonyl]benzenesulfonamide]",–
< 1 nM,"CN1CCc2c(n(-c3ccc(CCNC(=O)NS(=O)(=O)c4ccc(Cl)cc4)cc3)c3ccc(-c4ccccc4)cc23)C1=O [Example 1-8, 4-chloro-N-[({2-[4-(2-methyl-1-oxo-6-phenyl-1,2,3,4-tetrahydro-9H-beta-carbolin-9-yl)phenyl]ethyl}amino)carbonyl]benzenesulfonamide]",–
< 1 nM,"CN1CCc2c(n(-c3ccc(CCNC(=O)NS(=O)(=O)c4ccc(Cl)cc4)cc3)c3cc(Cl)c(Cl)cc23)C1=O [Example 1-10, 4-chloro-N-[({2-[4-(6,7-dichloro-2-methyl-1-oxo-1,2,3,4-tetrahydro-9H-beta-carbolin-9-yl)phenyl]ethyl}amino)carbonyl]benzenesulfonamide]",–
< 1 nM,"CN1CCc2c(n(-c3ccc(CCNC(=O)NS(=O)(=O)c4ccc(Cl)cc4)cc3)c3ccc(Cl)c(Cl)c23)C1=O [Example 1-11, 4-chloro-N-[({2-[4-(5,6-dichloro-2-methyl-1-oxo-1,2,3,4-tetrahydro-9H-beta-carbolin-9-yl)phenyl]ethyl}amino)carbonyl]benzenesulfonamide]",–
< 1 nM,"CN1CCc2c(n(-c3ccc(CCNC(=O)NS(=O)(=O)c4ccc(Cl)cc4)cc3)c3cc(Cl)ccc23)C1=O [Example 1-12, 4-chloro-N-[({2-[4-(7-chloro-2-methyl-1-oxo-1,2,3,4-tetrahydro-9H-beta-carbolin-9-yl)phenyl]ethyl}amino)carbonyl]benzenesulfonamide]",–
< 1 nM,"CN1CCc2c(n(-c3ccc(CCNC(=O)NS(=O)(=O)c4ccc(Cl)cc4)cc3)c3cccc(Cl)c23)C1=O [Example 1-13, 4-chloro-N-[({2-[4-(5-chloro-2-methyl-1-oxo-1,2,3,4-tetrahydro-9H-beta-carbolin-9-yl)phenyl]ethyl}amino)carbonyl]benzenesulfonamide]",–
